Assay results taken from PubChem BioAssay (NCI).
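Cells were grown in 96-well plates and exposed to each compound for 48 hours at five concentrations; endpoints were interpolated linearly between bracketing concentrations, or set to the highest concentration if not reached. GI50 = concentration required for 50% inhibition of growth. At the TGI there is no net growth.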

What was measured:
Experiment in all cases: DTP human tumour cell line panel, 48 h
CCRF-CEM leukemia = tested on: CCRF-CEM leukemia
SK-MEL-2 melanoma = tested on: SK-MEL-2 melanoma
MCF7 breast = tested on: MCF7 breast
MALME-3M melanoma = tested on: MALME-3M melanoma
786-0 renal = tested on: 786-0 renal
HOP-62 NSCLC = tested on: HOP-62 NSCLC
RXF 393 renal = tested on: RXF 393 renal
SF-539 CNS = tested on: SF-539 CNS
LOX IMVI melanoma = tested on: LOX IMVI melanoma
SN12C renal = tested on: SN12C renal
SF-268 CNS = tested on: SF-268 CNS
T-47D breast = tested on: T-47D breast
UACC-257 melanoma = tested on: UACC-257 melanoma
BT-549 breast = tested on: BT-549 breast
HOP-92 NSCLC = tested on: HOP-92 NSCLC
NCI-H23 lung = tested on: NCI-H23 lung
UO-31 renal = tested on: UO-31 renal
MDA-MB-231 breast = tested on: MDA-MB-231 breast
CAKI-1 renal = tested on: CAKI-1 renal
SNB-19 CNS = tested on: SNB-19 CNS
HS 578T breast = tested on: HS 578T breast
MDA-MB-435 = tested on: MDA-MB-435
K-562 leukemia = tested on: K-562 leukemia
EKVX NSCLC = tested on: EKVX NSCLC
M14 melanoma = tested on: M14 melanoma
MDA-MB-468 breast = tested on: MDA-MB-468 breast
OVCAR-5 ovarian = tested on: OVCAR-5 ovarian
MOLT-4 leukemia = tested on: MOLT-4 leukemia
NCI/ADR-RES ovarian = tested on: NCI/ADR-RES ovarian
NCI-H460 lung = tested on: NCI-H460 lung
HL-60(TB) leukemia = tested on: HL-60(TB) leukemia
HCT-15 colon = tested on: HCT-15 colon
PC-3 prostate = tested on: PC-3 prostate
TK-10 renal = tested on: TK-10 renal
OVCAR-8 ovarian = tested on: OVCAR-8 ovarian
A498 renal = tested on: A498 renal
OVCAR-3 ovarian = tested on: OVCAR-3 ovarian
HCC-2998 colon = tested on: HCC-2998 colon
UACC-62 melanoma = tested on: UACC-62 melanoma
A549 NSCLC = tested on: A549 NSCLC
DU-145 prostate = tested on: DU-145 prostate
COLO 205 colon = tested on: COLO 205 colon
SR leukemia = tested on: SR leukemia
SK-MEL-5 melanoma = tested on: SK-MEL-5 melanoma
IGROV1 ovarian = tested on: IGROV1 ovarian
SK-MEL-28 melanoma = tested on: SK-MEL-28 melanoma
NCI-H522 lung = tested on: NCI-H522 lung
OVCAR-4 ovarian = tested on: OVCAR-4 ovarian
U251 CNS = tested on: U251 CNS
HCT-116 colon = tested on: HCT-116 colon
RPMI-8226 leukemia = tested on: RPMI-8226 leukemia
SW-620 colon = tested on: SW-620 colon
SK-OV-3 ovarian = tested on: SK-OV-3 ovarian
NCI-H226 lung = tested on: NCI-H226 lung
SF-295 CNS = tested on: SF-295 CNS
KM12 colon = tested on: KM12 colon
ACHN renal = tested on: ACHN renal
HT29 colon = tested on: HT29 colon

O=S(=O)(Nc1cccc(-n2cnc3cc(-c4ccc(O)cc4)ccc32)c1)C1CC1
GI50 (CCRF-CEM leukemia): 2620 nM
TGI (CCRF-CEM leukemia): 14.5 µM
GI50 (SK-MEL-2 melanoma): 2870 nM
TGI (SK-MEL-2 melanoma): 14.5 µM
GI50 (MCF7 breast): 1960 nM
TGI (MCF7 breast): 16.8 µM
GI50 (MALME-3M melanoma): 3.54 µM
TGI (MALME-3M melanoma): 18.4 µM
GI50 (786-0 renal): 4.7 µM
TGI (786-0 renal): 16.9 µM
GI50 (HOP-62 NSCLC): 4.63 µM
TGI (HOP-62 NSCLC): 19.4 µM
GI50 (RXF 393 renal): 2190 nM
TGI (RXF 393 renal): 7.7 µM
GI50 (SF-539 CNS): 1530 nM
TGI (SF-539 CNS): 6.1 µM
GI50 (LOX IMVI melanoma): 3.14 µM
TGI (LOX IMVI melanoma): 14.7 µM
GI50 (SN12C renal): 3.7 µM
TGI (SN12C renal): 15.1 µM
GI50 (SF-268 CNS): 3.79 µM
TGI (SF-268 CNS): 17.2 µM
GI50 (T-47D breast): 2730 nM
TGI (T-47D breast): 14.5 µM
GI50 (UACC-257 melanoma): 10.2 µM
TGI (UACC-257 melanoma): 22 µM
GI50 (BT-549 breast): 2590 nM
TGI (BT-549 breast): 12.5 µM
GI50 (HOP-92 NSCLC): 1430 nM
TGI (HOP-92 NSCLC): 8.43 µM
GI50 (NCI-H23 lung): 5.04 µM
TGI (NCI-H23 lung): 20.6 µM
GI50 (UO-31 renal): 2190 nM
TGI (UO-31 renal): 13.9 µM
GI50 (MDA-MB-231 breast): 3.4 µM
TGI (MDA-MB-231 breast): 20.8 µM
GI50 (CAKI-1 renal): 3.25 µM
TGI (CAKI-1 renal): 14.6 µM
GI50 (SNB-19 CNS): 5.95 µM
TGI (SNB-19 CNS): 19.8 µM
GI50 (HS 578T breast): 1930 nM
TGI (HS 578T breast): 7.42 µM
GI50 (MDA-MB-435): 311 nM
TGI (MDA-MB-435): 1330 nM
GI50 (K-562 leukemia): 546 nM
TGI (K-562 leukemia): > 100 µM
GI50 (EKVX NSCLC): 6.56 µM
TGI (EKVX NSCLC): 21.6 µM
GI50 (M14 melanoma): 2360 nM
TGI (M14 melanoma): 17.6 µM
GI50 (MDA-MB-468 breast): 1440 nM
TGI (MDA-MB-468 breast): 6.58 µM
GI50 (OVCAR-5 ovarian): 6.77 µM
TGI (OVCAR-5 ovarian): 20.6 µM
GI50 (MOLT-4 leukemia): 2010 nM
TGI (MOLT-4 leukemia): 14.1 µM
GI50 (NCI/ADR-RES ovarian): 3.52 µM
TGI (NCI/ADR-RES ovarian): 36.5 µM
GI50 (NCI-H460 lung): 3.03 µM
TGI (NCI-H460 lung): 13 µM
GI50 (HL-60(TB) leukemia): 1380 nM
TGI (HL-60(TB) leukemia): 5.63 µM
GI50 (HCT-15 colon): 1620 nM
TGI (HCT-15 colon): 14.1 µM
GI50 (PC-3 prostate): 3.2 µM
TGI (PC-3 prostate): 17 µM
GI50 (TK-10 renal): 8.98 µM
TGI (TK-10 renal): 20.9 µM
GI50 (OVCAR-8 ovarian): 3.23 µM
TGI (OVCAR-8 ovarian): 14.5 µM
GI50 (A498 renal): 3.31 µM
TGI (A498 renal): 10.4 µM
GI50 (OVCAR-3 ovarian): 2140 nM
TGI (OVCAR-3 ovarian): 10.3 µM
GI50 (HCC-2998 colon): 4.4 µM
TGI (HCC-2998 colon): 19.6 µM
GI50 (UACC-62 melanoma): 1620 nM
TGI (UACC-62 melanoma): 14.3 µM
GI50 (A549 NSCLC): 4.04 µM
TGI (A549 NSCLC): 17.1 µM
GI50 (DU-145 prostate): 4.19 µM
TGI (DU-145 prostate): 15 µM
GI50 (COLO 205 colon): 3.17 µM
TGI (COLO 205 colon): 11.1 µM
GI50 (SR leukemia): 391 nM
TGI (SR leukemia): 65.5 µM
GI50 (SK-MEL-5 melanoma): 3.13 µM
TGI (SK-MEL-5 melanoma): 14.1 µM
GI50 (IGROV1 ovarian): 4.58 µM
TGI (IGROV1 ovarian): 17.7 µM
GI50 (SK-MEL-28 melanoma): 6.68 µM
TGI (SK-MEL-28 melanoma): 20 µM
GI50 (NCI-H522 lung): 820 nM
TGI (NCI-H522 lung): 3.66 µM
GI50 (OVCAR-4 ovarian): 4.03 µM
TGI (OVCAR-4 ovarian): 17.3 µM
GI50 (U251 CNS): 2650 nM
TGI (U251 CNS): 13.8 µM
GI50 (HCT-116 colon): 2820 nM
TGI (HCT-116 colon): 15.3 µM
GI50 (RPMI-8226 leukemia): 2830 nM
TGI (RPMI-8226 leukemia): 9.46 µM
GI50 (SW-620 colon): 1500 nM
TGI (SW-620 colon): 17.4 µM
GI50 (SK-OV-3 ovarian): 3.84 µM
TGI (SK-OV-3 ovarian): 13.4 µM
GI50 (NCI-H226 lung): 6.23 µM
TGI (NCI-H226 lung): 27.8 µM
GI50 (SF-295 CNS): 2360 nM
TGI (SF-295 CNS): 11.4 µM
GI50 (KM12 colon): 654 nM
TGI (KM12 colon): 13.2 µM
GI50 (ACHN renal): 4.86 µM
TGI (ACHN renal): 16.8 µM
GI50 (HT29 colon): 2600 nM
TGI (HT29 colon): 8.59 µM
